{"source": "patent US20240083897A1", "about": "“GCN2 MODULATING COMPOUNDS AND USES THEREOF” (HiberCell, Inc., priority 2021, published 2024)"}
{"target": "GCN2 (Homo sapiens (Human), UniProt Q9P2K8)", "sequence (Q9P2K8 whole entry)": "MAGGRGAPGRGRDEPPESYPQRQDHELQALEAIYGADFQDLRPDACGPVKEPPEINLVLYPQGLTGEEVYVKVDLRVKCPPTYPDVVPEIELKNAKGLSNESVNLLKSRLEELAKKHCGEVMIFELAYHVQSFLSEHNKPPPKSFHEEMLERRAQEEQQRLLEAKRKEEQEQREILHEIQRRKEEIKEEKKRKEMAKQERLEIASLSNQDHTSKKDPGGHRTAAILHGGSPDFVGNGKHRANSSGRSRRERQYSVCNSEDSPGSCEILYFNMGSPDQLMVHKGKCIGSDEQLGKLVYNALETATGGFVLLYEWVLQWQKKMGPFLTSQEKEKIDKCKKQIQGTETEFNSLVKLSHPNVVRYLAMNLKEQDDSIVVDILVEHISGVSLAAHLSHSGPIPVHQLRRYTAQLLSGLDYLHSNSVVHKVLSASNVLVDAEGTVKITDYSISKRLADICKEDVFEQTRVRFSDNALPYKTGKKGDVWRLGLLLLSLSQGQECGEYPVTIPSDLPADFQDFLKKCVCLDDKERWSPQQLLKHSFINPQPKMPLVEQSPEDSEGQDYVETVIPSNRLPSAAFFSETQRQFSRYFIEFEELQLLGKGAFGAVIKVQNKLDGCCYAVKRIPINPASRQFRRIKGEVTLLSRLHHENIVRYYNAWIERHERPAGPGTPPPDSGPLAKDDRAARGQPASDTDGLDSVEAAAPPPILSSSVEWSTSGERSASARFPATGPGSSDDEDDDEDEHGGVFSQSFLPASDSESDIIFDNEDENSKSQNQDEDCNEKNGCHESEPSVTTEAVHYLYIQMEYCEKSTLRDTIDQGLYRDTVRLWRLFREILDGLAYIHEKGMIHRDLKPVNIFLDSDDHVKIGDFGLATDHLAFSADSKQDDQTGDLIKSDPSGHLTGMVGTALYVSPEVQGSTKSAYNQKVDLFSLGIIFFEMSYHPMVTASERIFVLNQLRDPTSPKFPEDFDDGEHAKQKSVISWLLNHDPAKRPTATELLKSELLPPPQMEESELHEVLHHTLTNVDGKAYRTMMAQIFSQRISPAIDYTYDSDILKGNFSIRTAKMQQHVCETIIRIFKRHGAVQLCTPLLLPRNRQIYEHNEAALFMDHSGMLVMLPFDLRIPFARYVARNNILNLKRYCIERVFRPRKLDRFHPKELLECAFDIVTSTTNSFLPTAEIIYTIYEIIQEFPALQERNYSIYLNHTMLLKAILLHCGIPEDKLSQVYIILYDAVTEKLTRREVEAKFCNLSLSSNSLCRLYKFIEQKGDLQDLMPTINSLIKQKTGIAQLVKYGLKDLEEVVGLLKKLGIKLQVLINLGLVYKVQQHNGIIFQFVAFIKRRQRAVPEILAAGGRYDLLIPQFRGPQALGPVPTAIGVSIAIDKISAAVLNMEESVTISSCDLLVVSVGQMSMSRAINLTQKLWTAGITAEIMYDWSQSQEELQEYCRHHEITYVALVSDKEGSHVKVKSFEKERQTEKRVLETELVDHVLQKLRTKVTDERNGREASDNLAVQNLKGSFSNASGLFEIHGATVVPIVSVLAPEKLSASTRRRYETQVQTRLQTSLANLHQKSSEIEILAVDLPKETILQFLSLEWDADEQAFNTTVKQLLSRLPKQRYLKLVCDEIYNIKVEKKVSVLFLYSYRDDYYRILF", "assay": "TR-FRET biochemical assay for inhibition of GCN2", "details": "not given", "units": {"IC50": "nM"}}
{"compound": "COc1ncc(C#N)cc1S(=O)(=O)Nc1ccc(F)c(-c2ccc3c(-c4ccn(C)n4)ncn3c2)c1F", "note": "[Compound 53, 5-cyano-N-[2,4-difluoro-3-[1-(1-methylpyrazol-3-yl)imidazo[1,5-a]pyridin-6-yl]phenyl]-2-methoxypyridine-3-sulfonamide]", "IC50": "50 to 500"}
{"compound": "Cc1ncc(F)cc1S(=O)(=O)Nc1ccc(F)c(-c2ccc3c(-c4ccn(C)n4)ncn3c2)c1F", "note": "[Compound 54, N-[2,4-difluoro-3-[1-(1-methylpyrazol-3-yl)imidazo[1,5-a]pyridin-6-yl]phenyl]-5-fluoro-2-methylpyridine-3-sulfonamide]", "IC50": "50 to 500"}
{"compound": "COc1ncc(Cl)cc1S(=O)(=O)Nc1ccc(F)c(-c2ccc3c(-n4nccn4)ncn3c2)c1F", "note": "[Compound 55-2, 5-chloro-N-[2,4-difluoro-3-[1-(1,2,3-triazol-2-yl)imidazo[1,5-a]pyridin-6-yl]phenyl]-2-methoxypyridine-3-sulfonamide]", "IC50": "500 to 1000"}
{"target": "GCN2 (Homo sapiens (Human), UniProt Q9P2K8)", "assay": "TR-FRET biochemical assay for inhibition of GCN2", "details": "GCN2 2 nM, 100 nM GFP-eIF2a, 150 μM ATP, TR-FRET", "units": {"IC50": "nM"}}
{"compound": "COc1ncc(F)cc1S(=O)(=O)Nc1ccc(F)c(-c2ccn3c(-c4ncc[nH]4)ncc3c2)c1F", "note": "[Compound 36, N-[2,4-difluoro-3-[3-(1H-imidazol-2-yl)imidazo[1,5-a]pyridin-7-yl]phenyl]-5-fluoro-2-methoxypyridine-3-sulfonamide]", "IC50": "< 50"}
{"compound": "COc1ncc(Cl)cc1S(=O)(=O)Nc1ccc(F)c(-c2ccc3c(-c4ccn(C)n4)ncn3c2)c1F", "note": "[Compound 37, 5-chloro-N-[2,4-difluoro-3-[1-(1-methylpyrazol-3-yl)imidazo[1,5-a]pyridin-6-yl]phenyl]-2-methoxypyridine-3-sulfonamide]", "IC50": "< 50"}
{"compound": "COc1ncc(Cl)cc1S(=O)(=O)Nc1ccc(F)c(-c2ccc3c(-c4ncc[nH]4)ncn3c2)c1C#N", "note": "[Compound 38, 5-chloro-N-[2-cyano-4-fluoro-3-[1-(1H-imidazol-2-yl)imidazo[1,5-a]pyridin-6-yl]phenyl]-2-methoxypyridine-3-sulfonamide]", "IC50": "< 50"}
{"compound": "N#Cc1cc2c(c(S(=O)(=O)Nc3ccc(F)c(-c4ccc5c(-c6ncc[nH]6)ncn5c4)c3F)c1)CCC2O", "note": "(stereo not shown) [Compound 39, 6-cyano-N-[2,4-difluoro-3-[1-(1H-imidazol-2-yl)imidazo[1,5-a]pyridin-6-yl]phenyl]-1-hydroxy-2,3-dihydro-1H-indene-4-sulfonamide]", "IC50": "< 50"}
{"compound": "COc1ncc(C#N)cc1S(=O)(=O)Nc1ccc(F)c(-c2ccn3c(-c4ncc[nH]4)ncc3c2)c1F", "note": "[Compound 40, 5-cyano-N-[2,4-difluoro-3-[3-(1H-imidazol-2-yl)imidazo[1,5-a]pyridin-7-yl]phenyl]-2-methoxypyridine-3-sulfonamide]", "IC50": "< 50"}
{"compound": "COc1ncc(Cl)cc1S(=O)(=O)Nc1ccc(F)c(-c2ccn3c(-c4ncc[nH]4)ncc3c2F)c1F", "note": "[Compound 41, 5-chloro-N-[2,4-difluoro-3-[8-fluoro-3-(1H-imidazol-2-yl)imidazo[1,5-a]pyridin-7-yl]phenyl]-2-methoxypyridine-3-sulfonamide]", "IC50": "< 50"}
{"compound": "COc1ncc(C#N)cc1S(=O)(=O)Nc1ccc(F)c(-c2ccn3c(-c4ncc[nH]4)ncc3c2F)c1F", "note": "[Compound 42, 5-cyano-N-[2,4-difluoro-3-[8-fluoro-3-(1H-imidazol-2-yl)imidazo[1,5-a]pyridin-7-yl]phenyl]-2-methoxypyridine-3-sulfonamide]", "IC50": "< 50"}
{"compound": "COc1ncc(Cl)cc1S(=O)(=O)Nc1ccc(F)c(-c2ccc3c(-c4nc(C#N)c[nH]4)ncn3c2)c1F", "note": "[Compound 43, N-[3-[1-(4-cyano-1H-imidazol-2-yl)imidazo[1,5-a]pyridin-6-yl]-2,4-difluorophenyl]-5-chloro-2-methoxypyridine-3-sulfonamide]", "IC50": "< 50"}
{"compound": "Cc1ncc(F)cc1S(=O)(=O)Nc1ccc(F)c(-c2ccc3c(-c4nc(C#N)c[nH]4)ncn3c2)c1F", "note": "[Compound 44, N-[3-[1-(4-cyano-1H-imidazol-2-yl)imidazo[1,5-a]pyridin-6-yl]-2,4-difluorophenyl]-5-fluoro-2-methylpyridine-3-sulfonamide]", "IC50": "< 50"}
{"compound": "COc1ncc(F)cc1S(=O)(=O)Nc1ccc(F)c(-c2ccc3c(-c4nc(Cl)c[nH]4)ncn3c2)c1F", "note": "[Compound 45, N-[3-[1-(4-chloro-1H-imidazol-2-yl)imidazo[1,5-a]pyridin-6-yl]-2,4-difluorophenyl]-5-fluoro-2-methoxypyridine-3-sulfonamide]", "IC50": "< 50"}
{"compound": "COc1ncc(F)cc1S(=O)(=O)Nc1ccc(F)c(-c2ccc3c(-c4ccn(C)n4)ncn3c2)c1F", "note": "[Compound 46, N-[2,4-difluoro-3-[1-(1-methylpyrazol-3-yl)imidazo[1,5-a]pyridin-6-yl]phenyl]-5-fluoro-2-methoxypyridine-3-sulfonamide]", "IC50": "< 50"}
{"compound": "COc1ncc(F)cc1S(=O)(=O)Nc1ccc(F)c(-c2ccn3c(-c4ncc[nH]4)ncc3c2F)c1F", "note": "[Compound 47, N-[2,4-difluoro-3-[8-fluoro-3-(1H-imidazol-2-yl)imidazo[1,5-a]pyridin-7-yl]phenyl]-5-fluoro-2-methoxypyridine-3-sulfonamide]", "IC50": "< 50"}
{"compound": "COc1ncc(Cl)cc1S(=O)(=O)Nc1ccc(F)c(-c2ccc3c(-c4ncc(C)[nH]4)ncn3c2)c1F", "note": "[Compound 48, 5-chloro-N-[2,4-difluoro-3-[1-(4-methyl-3H-imidazol-2-yl)imidazo[1,5-a]pyridine-6-yl]phenyl]-2-methoxypyridine-3-sulfonamide]", "IC50": "< 50"}
{"compound": "COc1ncc(Cl)cc1S(=O)(=O)Nc1ccc(F)c(-c2ccc3c(-c4ncc(CO)[nH]4)ncn3c2)c1F", "note": "[Compound 49, 5-chloro-N-(2,4-difluoro-3-[1-[4-(hydroxymethyl)-3H-imidazol-2-yl]imidazo[1,5-a]pyridin-6-yl]phenyl)-2-methoxypyridine-3-sulfonamide]", "IC50": "< 50"}
{"compound": "Cc1cnc(-c2ncn3cc(-c4c(F)ccc(NS(=O)(=O)c5cc(F)cnc5C)c4F)ccc23)[nH]1", "note": "[Compound 50, N-[2,4-difluoro-3-[1-(4-methyl-3H-imidazol-2-yl)imidazo[1,5-a]pyridin-6-yl]phenyl]-5-fluoro-2-methylpyridine-3-sulfonamide]", "IC50": "< 50"}
{"compound": "Cc1ncc(F)cc1S(=O)(=O)Nc1ccc(F)c(-c2ccc3c(-c4ncc(CO)[nH]4)ncn3c2)c1F", "note": "[Compound 51, N-(2,4-difluoro-3-[1-[4-(hydroxymethyl)-3H-imidazol-2-yl]imidazo[1,5-a]pyridin-6-yl]phenyl)-5-fluoro-2-methylpyridine-3-sulfonamide]", "IC50": "< 50"}
{"compound": "COc1ncc(Cl)cc1S(=O)(=O)Nc1ccc(F)c(-c2ccc3c(-c4nc(Cl)c[nH]4)ncn3c2)c1F", "note": "[Compound 52, 5-chloro-N-[3-[1-(4-chloro-1H-imidazol-2-yl)imidazo[1,5-a]pyridin-6-yl]-2,4-difluorophenyl]-2-methoxypyridine-3-sulfonamide]", "IC50": "< 50"}
{"compound": "COc1ncc(Cl)cc1S(=O)(=O)Nc1ccc(F)c(-c2ccc3c(-n4ccnn4)ncn3c2)c1F", "note": "[Compound 55-1, 5-chloro-N-[2,4-difluoro-3-[1-(1,2,3-triazol-1-yl)imidazo[1,5-a]pyridin-6-yl]phenyl]-2-methoxypyridine-3-sulfonamide]", "IC50": "< 50"}
{"compound": "Cc1cnc(-c2ncn3cc(-c4c(F)ccc(NS(=O)(=O)c5cc(Cl)cnc5C)c4F)ccc23)[nH]1", "note": "[Compound 56, 5-chloro-N-[2,4-difluoro-3-[1-(4-methyl-3H-imidazol-2-yl)imidazo[1,5-a]pyridine-6-yl]phenyl]-2-methylpyridine-3-sulfonamide]", "IC50": "< 50"}
